“Also recorded” adds a separate entry of the source. Numbered stars: 1 amine (or outer) side, 2 acyl side, 3 side chain; on linkers, the order of the positions; unused ones are H or OH. Bridge positions count the residues as written; N and C are the ends. Square brackets hold non-standard residues; d marks the D form. Peptide text beside a SMILES is read from it. * marks the point of attachment. Leu(3R-OH,Nα-propionyl) = CCC(=O)N[C@H](C(=O)*)[C@H](O)C(C)C; X1 = CC(C)[C@@H](O[*:3])[C@H](N[*:1])C(=O)[*:2]; NMeT = CN[C@H](C(=O)O)[C@@H](C)O; dPhLac = O=C(O)[C@H](O)Cc1ccccc1; NMeA = CN[C@@H](C)C(=O)O; NMeDha = C=C(NC)C(=O)O
Columns and labels:
[1] = target: T1, cannabinoid receptor 2 (Cnr2) (Homo sapiens, UniProt P34972); assay: Intracellular Ca2+ measurement in CNR2-transfected HEK293 cells; type: cell-based; details: 200 nM of 2-AG, Fig. 2c
T1 construct: expressed in transfected cells; host or cells: HEK293
T1 sequence (P34972 whole entry): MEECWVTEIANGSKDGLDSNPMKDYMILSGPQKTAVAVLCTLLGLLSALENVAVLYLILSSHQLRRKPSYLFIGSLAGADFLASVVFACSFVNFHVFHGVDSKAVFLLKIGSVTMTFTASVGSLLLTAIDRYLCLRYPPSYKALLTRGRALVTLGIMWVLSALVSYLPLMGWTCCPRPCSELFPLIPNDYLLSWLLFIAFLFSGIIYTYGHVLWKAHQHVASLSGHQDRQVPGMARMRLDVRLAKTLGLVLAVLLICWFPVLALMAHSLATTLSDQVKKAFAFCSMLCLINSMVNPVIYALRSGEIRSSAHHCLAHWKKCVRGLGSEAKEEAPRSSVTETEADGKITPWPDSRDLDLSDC
Protocol: RAW264.7 cells were grown in DMEM supplemented with 10% FBS, A7r5 (rat […]) cells in DMEM with 10% FBS, and A431 (human squamous carcinoma) cells in RPMI supplemented with 10% FBS. All cell lines were grown at 37 °C in a humidified 5% CO2 incubator. For functional assays, receptor constructs were heterologously expressed in human embryonic kidney (HEK293) cells upon transient or stable transfection. Cells were grown in DMEM/F12 supplemented with 10% FBS, 100 units/ml penicillin, and 100 µg/ml streptomycin. For the cAMP-inhibition assay, ERK1/2 phosphorylation assay, and Ca^2+ mobilization assay, cells were split into 96-well plates (2.0 × 10^4 cells/well) and transfected with 250 ng vector construct using MACSfectin™ (Miltenyi Biotec, Germany) according to manufacturer’s protocol. Empty vector (mock) served as the negative control. For siRNA experiments, cells were seeded in 6-well plates (4.0 × 10^5 and 6.0 × 10^5 cells/well for RAW264.7 and H1819, respectively). […]
For fluorometric measurements of intracellular Ca^2+ levels with the FlexStationII instrument (Molecular Devices), RAW264.7 and H1819 cells were seeded into 96-well plates (3.0 × 10^4 cells/well) 24 h prior to assay. […] Fold-response was calculated by RFUmax − RFUmin (ligand)/RFUmax − RFUmin (vehicle). EC50 values were calculated by using GraphPad Prism6 software (GraphPad, USA).

P2Y1 = target: T2, P2Y1 (Homo sapiens, UniProt P47900); assay: Intracellular Ca2+ release in HEK293 cells transfected with P2RY1; type: cell-based; details: HEK293 transfected with P2RY1, Fig. 3f
T2 construct: expressed in transfected cells; host or cells: HEK293
T2 sequence (P47900 whole entry, species assumed): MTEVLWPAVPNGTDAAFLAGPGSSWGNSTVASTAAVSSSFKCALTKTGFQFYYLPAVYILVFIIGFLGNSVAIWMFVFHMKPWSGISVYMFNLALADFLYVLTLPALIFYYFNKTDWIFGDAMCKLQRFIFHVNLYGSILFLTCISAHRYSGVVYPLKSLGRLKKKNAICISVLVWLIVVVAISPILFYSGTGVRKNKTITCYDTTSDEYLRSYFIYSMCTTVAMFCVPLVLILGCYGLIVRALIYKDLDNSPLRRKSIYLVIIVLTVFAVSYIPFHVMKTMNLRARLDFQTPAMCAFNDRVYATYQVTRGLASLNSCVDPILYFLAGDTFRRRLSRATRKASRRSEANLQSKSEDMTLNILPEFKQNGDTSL
Protocol: (§1) For fluorometric measurements of intracellular Ca^2+ levels with the FlexStationII instrument (Molecular Devices), RAW264.7 and H1819 cells were seeded into 96-well plates (3.0 × 10^4 cells/well) 24 h prior to assay. Ca^2+ measurements with transiently transfected HEK293 cells were performed 48 h after transfection. Cells were loaded with 200 µl Calcium 5 reagent (Explorer Kit, Molecular Devices, USA) for 60 min at 37 °C, and the assay was performed as described. Agonists and inhibitors were solved in DMSO (100x) and diluted […] in 96-well compound plates containing HBSS. 50 µl of compound solution were added to the assay plate resulting in final concentration of 1% DMSO. Fold-response was calculated by RFUmax − RFUmin (ligand)/RFUmax − RFUmin (vehicle). EC50 values were calculated by using GraphPad Prism6 software (GraphPad, USA).

P2Y12 = target: T3, P2Y12 (Homo sapiens, UniProt Q9H244); assay: Intracellular Ca2+ release in HEK293 cells transfected with P2RY12; type: cell-based; details: HEK293 transfected with P2RY12, Fig. 3f
T3 construct: expressed in transfected cells; host or cells: HEK293
T3 sequence (Q9H244 whole entry, species assumed): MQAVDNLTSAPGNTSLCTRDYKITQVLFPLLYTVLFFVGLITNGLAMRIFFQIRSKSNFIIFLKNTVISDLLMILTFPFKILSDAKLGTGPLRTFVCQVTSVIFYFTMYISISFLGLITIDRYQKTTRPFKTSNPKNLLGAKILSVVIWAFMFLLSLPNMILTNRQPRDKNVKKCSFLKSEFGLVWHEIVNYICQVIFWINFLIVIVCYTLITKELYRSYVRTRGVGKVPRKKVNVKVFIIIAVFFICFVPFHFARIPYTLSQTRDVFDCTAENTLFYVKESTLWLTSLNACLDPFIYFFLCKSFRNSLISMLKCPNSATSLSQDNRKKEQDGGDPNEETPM
Protocol: as §1

P2Y6 [2] = target: T4, P2Y6 (Homo sapiens, UniProt Q15077); assay: Intracellular Ca2+ measurement in HEK293 cells transfected with P2RY6; type: cell-based; set-up: expressed in transfected cells; host or cells: HEK293; details: HEK293 stably transfected with P2RY6, Fig. 5c,d
T4 sequence (Q15077 whole entry): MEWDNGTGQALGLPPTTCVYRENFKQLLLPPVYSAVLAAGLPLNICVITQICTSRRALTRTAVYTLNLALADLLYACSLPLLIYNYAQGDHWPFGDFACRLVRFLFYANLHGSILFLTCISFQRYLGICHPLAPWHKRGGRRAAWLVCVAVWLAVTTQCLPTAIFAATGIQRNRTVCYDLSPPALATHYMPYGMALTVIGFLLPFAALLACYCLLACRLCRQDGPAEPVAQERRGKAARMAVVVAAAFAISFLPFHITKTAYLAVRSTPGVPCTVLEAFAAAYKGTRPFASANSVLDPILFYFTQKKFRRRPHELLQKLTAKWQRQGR
Protocol: RAW264.7 cells were grown in DMEM supplemented with 10% FBS, A7r5 (rat […]) cells in DMEM with 10% FBS, and A431 (human squamous carcinoma) cells in RPMI supplemented with 10% FBS. All cell lines were grown at 37 °C in a humidified 5% CO2 incubator. For functional assays, receptor constructs were heterologously expressed in human embryonic kidney (HEK293) cells upon transient or stable transfection. Cells were grown in DMEM/F12 supplemented with 10% FBS, 100 units/ml penicillin, and 100 µg/ml streptomycin. For the cAMP-inhibition assay, ERK1/2 phosphorylation assay, and Ca^2+ mobilization assay, cells were split into 96-well plates (2.0 × 10^4 cells/well) and transfected with 250 ng vector construct using MACSfectin™ (Miltenyi Biotec, Germany) according to manufacturer’s protocol. Empty vector (mock) served as the negative control. For siRNA experiments, cells were seeded in 6-well plates (4.0 × 10^5 and 6.0 × 10^5 cells/well for RAW264.7 and H1819, respectively). RAW264.7 and H1819 cells were transfected with 150 pMol of mP2RY6 siRNA and hP2RY6 siRNA (Santa Cruz Biotechnology, USA), respectively, using Viromer® Blue (Lipocalyx, Germany). As a negative control, control siRNA-A (Santa Cruz Biotechnology, USA) was used. FITC-labelled siRNA served as a transfection control.
To generate a cell line stably expressing P2Y6, HEK293 cells were seeded in 6-well plates (7.5 × 10^5 cells/well) and transfected with 3 µg vector using MACSfectin™ as transfection regent according to the manufacturer’s protocol. The pIRES-eGFP vector served as negative control. Stably transfected HEK293 cells were cultured in the presence of geneticin (500 µg/ml) for selection.
as §1

P2Y6 [3] = target: T4, P2Y6; assay: IP1 accumulation assay in HEK293 cells transfected with wildtype P2RY6; type: cell-based; set-up: expressed in transfected cells; host or cells: HEK293
Protocol: To measure intracellular IP3 the HitHunter® Inositol (1,4,5) Triphosphate Assay (DiscoveRx, USA) was used according to manufacturer′s protocol. HEK293 cells stably transfected with hP2RY6 were seeded in a 384-well Black microtiter plate (15,000 cells/well) (Greiner Bio One, Germany) and incubated with indicated concentrations of UDP and PGE2-G for 20 seconds. Reaction was stopped by adding 5 µl 0.2 N perchloric acid and measurement of IP3 was performed with the Fusion AlphaScreen multilabel reader (PerkinElmer Life Sciences) according to manufacturer′s protocol. To measure IP1, HEK293 cells expressing wildtype and mutant P2Y6 were seeded into 384-well plates (5,000 cells/well) 24 h prior assay. After aspiration of the medium, cells were incubated with indicated concentrations of agonists/antagonist for 1 h. IP1 measurements using the IP-one HTFR® assay kit (Cisbio assays, USA) were performed according to manufacturer′s protocol. The assays were performed with a final concentration of 1% DMSO.

P2Y6 [4] = target: T4, P2Y6; assay: Functional readouts at P2Y6, summary statements; type: cell-based; details: Fig. 5a–d
P2Y6 [5] = target: T4, P2Y6; assay: Agonist-induced receptor internalization, cell surface ELISA; type: cell-based; set-up: expressed in transfected cells; host or cells: HEK293; details: Fig. 5e
Protocol: To estimate cell surface expression of heterologously expressed receptors carrying an N-terminal HA tag, an indirect cellular ELISA was used[57]. To determine the endogenous cell surface expression of P2Y6, the same ELISA procedure was performed with minor modifications. Briefly, after 4% paraformaldehyde fixation and blocking with 10% FBS, cells were incubated with the primary anti-P2Y6 antibody (sc-15215; Santa Cruz Biotechnology, USA) in 1:1,000 dilution for 1 h. After washing with PBS, cells were incubated with peroxidase-conjugated secondary antibody anti-goat IgG (sc-2020, Santa Cruz Biotechnology, USA) in 1:5,000 dilutions.

RAW264.7 cells = details: RAW264.7 cells; cited from earlier work
P2Y6 [6] = target: T4, P2Y6; assay: ERK1/2 phosphorylation (AlphaScreen SureFire) in P2RY6-transfected HEK293 cells; type: cell-based; set-up: expressed in transfected cells; host or cells: HEK293; details: HEK293 cells stably transfected with P2RY6, Fig. 3e
Protocol: Cells were transferred to serum-free medium 2 h prior to assay. Ligands and controls (10 µl of 10× concentrates) were added to 90 µl medium and incubated for 5 min at 37 °C. The final concentration of DMSO was 0.2%. The reaction was stopped by aspiration of the medium and addition of 50 µl lysis buffer (PerkinElmer Life Sciences). To measure ERK1/2 phosphorylation, the AlphaScreen® SureFire ERK 1/2 assay kit (PerkinElmer Life Sciences) was used with the high sensitivity protocol. Phosphorylated ERK1/2 was measured in 384-well white OptiPlate microplates (PerkinElmer Life Sciences) with the Fusion AlphaScreen multilabel reader (PerkinElmer Life Sciences).

CCCCC/C=C\C/C=C\C/C=C\C/C=C\CCCC(=O)OC(CO)CO [2-AG, 2-arachidonoylglycerol]
effect on intracellular Ca2+ [1]: robust intracellular Ca^2+ increase; also recorded: elevated intracellular Ca^2+

Nc1ncnc2c1ncn2[C@@H]1O[C@H](COP(=O)(O)OP(=O)(O)O)[C@@H](O)[C@H]1O [ADP]
Ca2+ release (P2Y1): led to Ca^2+ release
Ca2+ release (P2Y12): led to Ca^2+ release

S=C=Nc1cccc(NC(=S)NCCCCNC(=S)Nc2cccc(N=C=S)c2)c1 [MRS2578]
effect of antagonist on UDP- and PGE2-G-triggered Ca2+ release (P2Y6 [2]): same effects; also recorded: reduced both, the efficacies and potencies
effect of antagonist on UDP- and PGE2-G-triggered IP1 accumulation (P2Y6 [3]; HEK293 stably transfected with P2RY6, increasing antagonist concentrations, Fig. 5a,b): reduced both the efficacies and potencies; also recorded: reduced both, the efficacies and potencies
mode of antagonism (P2Y6 [4]): antagonist with mixed properties (competitive and non-competitive)
effect of antagonist on agonist-induced internalization (P2Y6 [5]): blocked the internalization

CCCCC[C@H](O)/C=C/[C@H]1C(=O)C[C@H](O)[C@@H]1C/C=C\CCCC(=O)OC(CO)CO [PGD2-G]
effect in Ca2+ measurements (RAW264.7 cells): no effect

CCCCC[C@H](O)/C=C/[C@H]1[C@H](O)CC(=O)[C@@H]1C/C=C\CCCC(=O)O [PGE2]
effect in Ca2+ measurements (RAW264.7 cells): no effect
ERK1/2 phosphorylation response (P2Y6 [6]): no response

CCCCC[C@H](O)/C=C/[C@@H]1[C@@H](C/C=C\CCCC(=O)OC(CO)CO)[C@@H](O)C[C@H]1O [PGF2α-G]
effect in Ca2+ measurements (RAW264.7 cells): no effect
ERK1/2 phosphorylation response (P2Y6 [6]): no response

CCCCC[C@H](O)/C=C/[C@@H]1[C@@H](C/C=C\CCCC(=O)O)[C@@H](O)C[C@H]1O [PGF2α]
effect in Ca2+ measurements (RAW264.7 cells): led to Ca^2+ release
ERK1/2 phosphorylation response (P2Y6 [6]): no effect

C=C1C(=O)N[C@@H](C)C(=O)N(C)[C@@H](C)C(=O)N[C@@H]([C@H](OC(=O)[C@@H](NC(=O)CC)[C@H](O)C(C)C)C(C)C)C(=O)N(C)[C@@H]([C@@H](C)OC)C(=O)O[C@H](C(C)C)[C@H](NC(C)=O)C(=O)O[C@H](Cc2ccccc2)C(=O)N1C [UBO] (Ac-[X1][dPhLac][NMeDha]A[NMeA][X1](Leu(3R-OH,Nα-propionyl))[NMeT](Me); ester 1-C)
block of IP formation after stimulation with UDP and PGE2-G (P2Y6 [3]; IP1 accumulation, P2RY6-transfected HEK293, Fig. 3d): significantly block

Source: article PMC5443783, “Prostaglandin E2 glyceryl ester is an endogenous agonist of the nucleotide receptor P2Y6” (Scientific Reports, 2017)
